# Molecular target: T1, human M4 muscarinic acetylcholine receptor (Homo sapiens, UniProt P08173)
# T1 construct: expressed in transfected cells
# T1 sequence (P08173 1-479): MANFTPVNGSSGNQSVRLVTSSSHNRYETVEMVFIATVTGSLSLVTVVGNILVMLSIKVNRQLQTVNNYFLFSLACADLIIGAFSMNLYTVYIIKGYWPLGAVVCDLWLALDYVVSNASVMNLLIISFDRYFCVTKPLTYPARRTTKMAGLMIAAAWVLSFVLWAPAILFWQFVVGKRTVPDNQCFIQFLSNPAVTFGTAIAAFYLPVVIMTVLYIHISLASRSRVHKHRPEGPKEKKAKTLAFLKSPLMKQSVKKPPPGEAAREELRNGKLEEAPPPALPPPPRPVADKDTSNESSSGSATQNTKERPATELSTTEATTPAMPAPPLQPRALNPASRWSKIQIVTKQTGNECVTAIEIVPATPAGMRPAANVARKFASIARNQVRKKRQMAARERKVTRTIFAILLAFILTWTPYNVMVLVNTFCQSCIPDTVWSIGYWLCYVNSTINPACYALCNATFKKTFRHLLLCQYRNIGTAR
# Assay: human FLIPR-based M4 PAM assay (CHO-K1 cells with human M4 receptor and Gαqi5, calcium dye fluorescence)
# Format: cell-based
# Settings: inflection point of 4 parameter logistic fit; acetylcholine added at 20% of maximum response; read-out: M4PAM IP
# Experimental: In a typical experiment the M4 muscarinic acetylcholine receptor modulating activity of the compounds of the present invention was determined in accordance with the following experimental method. CHO-K1 cells stably transfected with human M4 receptor and chimeric G-protein Gαqi5 (Coward P, et al., Analytical Biochemistry, 270:242-248 (1999)) are thawed from liquid N2 storage, resuspended in growth medium, plated in black, clear bottom 384 well plates, and incubated 16-20 hours at 37° C., 5% CO2. On the day of assay, growth medium is removed, the cells are washed 2 times with wash buffer, and cells are incubated in dye loading buffer at 37° C., 5% CO2 for ˜1 hour. Following dye loading the cell plates are placed in a FLIPR Tetra instrument and while monitoring dye fluorescence (excitation […]), 10 uL of test substance at increasing concentrations is added, and fluorescence values are recorded for 4 min. Next, 10 uL of acetylcholine is added (final concentration calculated so as to achieve 20% of the maximum acetycholine response), and the fluorescence reading is continued for 3.5 min. In some cases, a third addition of acetylcholine (final concentration calculated to achieve 70% of the maximal acetylcholine response) is performed. The resulting dose response curves are fit to a 4 parameter logistic equation and the final result is determined as the inflection point (IP) of the curve
# CHO-K1 cells stably transfected with human M4 receptor and chimeric G-protein Gαqi5 are thawed from liquid N2 storage, resuspended in growth medium, plated in black, clear bottom 384 well plates, and incubated 16-20 hours at 37° C., 5% CO2.
# On the day of assay, growth medium is removed, the cells are washed 2 times with wash buffer, and cells are incubated in dye loading buffer at 37° C., 5% CO2 for ˜1 h. Following dye loading the cell plates are placed in a FLIPR Tetra instrument and while monitoring dye fluorescence ([…]), 10 uL of test substance at increasing concentrations is added, and fluorescence values are recorded for 4 min. Next, 10 uL of acetylcholine is added (final concentration calculated so as to achieve 20% of the maximum acetycholine response), and the fluorescence reading is continued for 3.5 min. In some cases, a third addition of acetylcholine (final concentration calculated to achieve 70% of the maximal acetylcholine response) is performed.
row,SMILES,EC50
1,"Cc1cn2ccc(-c3nc(C#N)ccc3-c3cnn(CCC(F)(F)C(F)(F)F)c3)cc2n1 [Example 29, 6-(2-methylimidazo[1,2-a]pyridin-7-yl)-5-[1-(3,3,4,4,4-pentafluorobutyl)-1H-pyrazol-4-yl]pyridine-2-carbonitrile]",96.9 nM
2,"Cc1nc2cc(-c3nc(C#N)ccc3-c3cnn(CCC(F)(F)C(F)F)c3)ccc2n1C [Example 30, 6-(1,2-dimethyl-1H-benzimidazol-5-yl)-5-[1-(3,3,4,4-tetrafluorobutyl)-1H-pyrazol-4-yl]pyridine-2-carbonitrile]",102 nM
3,"Cc1nc2cc(-c3nc(C#N)ccc3-c3cnn(CC(C)(F)F)c3)ccc2n1C [Example 31, 5-[1-(2,2-difluoropropyl)-1H-pyrazol-4-yl]-6-(1,2-dimethyl-1H-benzimidazol-5-yl)pyridine-2-carbonitrile]",163 nM
4,"Cc1nc2cc(-c3nc(C#N)ccc3-c3cnn(CC(C)(C)CC(F)F)c3)ccc2n1C [Example 34, 5-[1-(4,4-difluoro-2,2-dimethylbutyl)-1H-pyrazol-4-yl]-6-(1,2-dimethyl-1H-benzimidazol-5-yl)pyridine-2-carbonitrile]",54.2 nM
5,"Cc1cn2ccc(-c3nc(C#N)ccc3-c3cnn(CC(F)C(F)(F)F)c3)cc2n1 (stereo not shown) [Example 41, 6-(2-methylimidazo[1,2-a]pyridin-7-yl)-5-[1-(2,3,3,3-tetrafluoropropyl)-1H-pyrazol-4-yl]pyridine-2-carbonitrile]",62.2 nM
6,"N#Cc1ccc(-c2cnn(CC(F)(F)C(F)(F)F)c2)c(-c2ccn3ccnc3c2)n1 [Example 42, 6-imidazo[1,2-a]pyridin-7-yl-5-[1-(2,2,3,3,3-pentafluoropropyl)-1H-pyrazol-4-yl]pyridine-2-carbonitrile]",151 nM
7,"N#Cc1ccc(-c2cnn(CCC3CC3)c2)c(-c2ccn3ccnc3c2)n1 [Example 45, 5-[1-(2-cyclopropylethyl)-1H-pyrazol-4-yl]-6-imidazo[1,2-a]pyridin-7-ylpyridine-2-carbonitrile]",35.6 nM
8,"CC(C)(C#N)Cn1cc(-c2ccc(C#N)nc2-c2ccn3ccnc3c2)cn1 [Example 46, 5-[1-(2-cyano-2-methylpropyl)-1H-pyrazol-4-yl]-6-imidazo[1,2-a]pyridin-7-ylpyridine-2-carbonitrile]",242 nM
9,"CC(C)(C)Cn1cc(-c2ccc(C#N)nc2-c2ccn3ccnc3c2)cn1 [Example 48, 5-[1-(2,2-dimethylpropyl)-1H-pyrazol-4-yl]-6-imidazo[1,2-a]pyridin-7-ylpyridine-2-carbonitrile]",29.7 nM
10,"Cc1cn2ccc(-c3nc(C#N)ccc3-c3cnn(CCC(C)(C)C#N)c3)cc2n1 [Example 49, 5-[1-(3-cyano-3-methylbutyl)-1H-pyrazol-4-yl]-6-(2-methylimidazo[1,2-a]pyridin-7-yl)pyridine-2-carbonitrile]",174 nM
11,"CN1Cc2ccc(-c3nc(C#N)ccc3-c3cnn(CC4(C)CC4)c3)cc2C1=O [Example 50, 5-{1-[(1-methylcyclopropyl)methyl]-1H-pyrazol-4-yl}-6-(2-methyl-3-oxo-2,3-dihydro-1H-isoindol-5-yl)pyridine-2-carbonitrile]",51.2 nM
12,"CN1Cc2ccc(-c3nc(C#N)ccc3-c3cnn(CC4(C(F)(F)F)CC4)c3)cc2C1=O [Example 52, 6-(2-methyl-3-oxoisoindolin-5-yl)-5-(1-((1-(trifluoromethyl)cyclopropyl)methyl)-1H-pyrazol-4-yl)picolinonitrile]",20.7 nM

# The remaining compounds from weak to strong by EC50, led by results:
row,EC50,SMILES
1,234 nM,"Fc1cc(-c2cnn(CC3(C(F)(F)F)CC3)c2)c(-c2ccn3ccnc3c2)nc1F [Example 53, 7-(5,6-difluoro-3-(1-((1-(trifluoromethyl)cyclopropyl)methyl)-1H-pyrazol-4-yl)pyridin-2-yl)imidazo[1,2-a]pyridine]"
2,165 nM,"Cn1cnc2cc(-c3nc(C#N)ccc3-c3cnn(CC4(C)CCOCC4)c3)ccc21 [Example 38, 6-(1-methyl-1H-benzimidazol-5-yl)-5-{1-[(4-methyltetrahydro-2H-pyran-4-yl)methyl]-1H-pyrazol-4-yl}pyridine-2-carbonitrile]"
3,141 nM,"Cc1cn2ccc(-c3nc(C#N)ccc3-c3cnn(CCC(F)(F)F)c3)cc2n1 [Example 40, 6-(2-methylimidazo[1,2-a]pyridin-7-yl)-5-[1-(3,3,3-trifluoropropyl)-1H-pyrazol-4-yl]pyridine-2-carbonitrile]"
4,108 nM,"Cc1cn2ccc(-c3nc(C#N)ccc3-c3cnn(CC4(CC(C)C)CC4)c3)cc2n1 [Example 35, 6-(2-methylimidazo[1,2-a]pyridin-7-yl)-5-(1-{[1-(2-methylpropyl)cyclo-propyl]methyl}-1H-pyrazol-4-yl)pyridine-2-carbonitrile]"
5,88.3 nM,"Cc1cn2ccc(-c3nc(C#N)ccc3-c3cnn(CCC(O)C(F)(F)F)c3)cc2n1 (stereo not shown) [Example 43, 6-(2-methylimidazo[1,2-a]pyridin-7-yl)-5-[1-(4,4,4-trifluoro-3-hydroxybutyl)-1H-pyrazol-4-yl]pyridine-2-carbonitrile]"
6,81.9 nM,"Cc1nc2cc(-c3nc(C#N)ccc3-c3cnn(CC(F)C(C)(F)F)c3)ccc2n1C (stereo not shown) [Example 32, 6-(1,2-dimethyl-1H-benzimidazol-5-yl)-5-[1-(2,3,3-trifluorobutyl)-1H-pyrazol-4-yl]pyridine-2-carbonitrile]"
7,75.8 nM,"Cc1cn2ncc(-c3nc(C#N)ccc3-c3cnn(CC(C)(C)C(F)(F)F)c3)cc2n1 [Example 39, 6-(2-methylimidazo[1,2-b]pyridazin-7-yl)-5-[1-(3,3,3-trifluoro-2,2-dimethylpropyl)-1H-pyrazol-4-yl]pyridine-2-carbonitrile]"
8,67.4 nM,"Cc1nc2cc(-c3nc(C#N)ccc3-c3cnn(CC(C)(C)C(C)(F)F)c3)ccc2n1C [Example 28, 5-[1-(3,3-difluoro-2,2-dimethylbutyl)-1H-pyrazol-4-yl]-6-(1,2-dimethyl-1H-benzimidazol-5-yl)pyridine-2-carbonitrile]"
9,54.6 nM,"N#Cc1ccc(-c2cnn(CC3CC34CC4)c2)c(-c2ccn3ccnc3c2)n1 (stereo not shown) [Example 51, 6-imidazo[1,2-a]pyridin-7-yl-5-[1-(spiro[2.2]pent-1-ylmethyl)-1H-pyrazol-4-yl]pyridine-2-carbonitrile]"
10,51 nM,"Cc1nc2cc(-c3nc(C#N)ccc3-c3cnn(CC(C)(F)C(C)(F)F)c3)ccc2n1C (stereo not shown) [Example 33, 6-(1,2-dimethyl-1H-benzimidazol-5-yl)-5-[1-(2,3,3-trifluoro-2-methylbutyl)-1H-pyrazol-4-yl]pyridine-2-carbonitrile]"
11,37.4 nM,"CC(C)C1(Cn2cc(-c3ccc(C#N)nc3-c3ccn4ccnc4c3)cn2)CC1 [Example 36, 6-imidazo[1,2-a]pyridin-7-yl-5-(1-{[1-(1-methylethyl)cyclo-propyl]methyl}-1H-pyrazol-4-yl)pyridine-2-carbonitrile]"
12,28.4 nM,"CC(C)(Cn1cc(-c2ccc(C#N)nc2-c2ccn3ccnc3c2)cn1)C(F)(F)F [Example 44, 6-(imidazo[1,2-a]pyridin-7-yl)-5-(1-(3,3,3-trifluoro-2,2-dimethylpropyl)-1H-pyrazol-4-yl)picolinonitrile]"
13,14.5 nM,"CCC1(Cn2cc(-c3ccc(C#N)nc3-c3ccn4ccnc4c3)cn2)CC1 [Example 37, 5-{1-[(1-ethylcyclopropyl)methyl]-1H-pyrazol-4-yl}-6-imidazo[1,2-a]pyridin-7-ylpyridine-2-carbonitrile]"
